Earlier results as cited in patent US7785629B2, “Bicalutamide-adsorbates, process for preparing same, and pharmaceutical compositions thereof” (Helm AG, priority 2005, dated 2010).

Conditions: water and aqueous buffers at various pH values

CC(O)(CS(=O)(=O)c1ccc(F)cc1)C(=O)Nc1ccc(C#N)c(C(F)(F)F)c1 (stereo not shown) [Bicalutamide, N-[4′-cyano-3′-trifluoromethyl-phenyl]-3-[4″-fluorophenylsulfonyl]-2-hydroxy-2-methyl-propionamide]
Solubility: sparingly soluble
